Source: ChEMBL document CHEMBL1149293, “Identification of 7-phenylaminothieno- [3,2-b]pyridine-6-carbonitriles as a new class of Src kinase inhibitors” (J Med Chem, 2004)
pIC50: −log10 of the molar value.

Biological target: Proto-oncogene tyrosine-protein kinase Src (Homo sapiens, UniProt P12931)
Experiment: Inhibition of Src kinase

Sequence of Proto-oncogene tyrosine-protein kinase Src (P12931 2-536 limits assumed): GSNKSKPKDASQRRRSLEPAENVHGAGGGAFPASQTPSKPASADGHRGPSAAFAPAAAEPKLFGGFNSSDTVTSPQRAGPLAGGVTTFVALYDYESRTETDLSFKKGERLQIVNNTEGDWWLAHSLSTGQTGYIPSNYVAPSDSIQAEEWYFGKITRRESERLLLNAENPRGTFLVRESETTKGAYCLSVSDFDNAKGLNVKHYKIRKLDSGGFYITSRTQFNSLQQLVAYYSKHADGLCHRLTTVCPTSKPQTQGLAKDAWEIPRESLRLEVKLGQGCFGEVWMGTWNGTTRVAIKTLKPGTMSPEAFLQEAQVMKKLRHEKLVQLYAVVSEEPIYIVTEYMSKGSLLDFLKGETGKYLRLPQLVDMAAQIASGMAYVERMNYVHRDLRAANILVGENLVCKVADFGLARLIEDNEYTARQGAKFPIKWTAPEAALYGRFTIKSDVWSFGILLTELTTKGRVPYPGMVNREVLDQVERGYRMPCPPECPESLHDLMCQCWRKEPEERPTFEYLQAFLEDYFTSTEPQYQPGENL

pIC50 | Compound
< 5.00 | COc1cc(Nc2c(C#N)cnc3cc(-c4ccccc4N4CCN(C)CC4)sc23)c(Cl)cc1Cl
< 5.00 | COc1cc(Nc2c(C#N)cnc3c(-c4ccc(CN5CCOCC5)cc4)csc23)c(Cl)cc1Cl
